Measured values taken from PMC5754413, “Mass balance, metabolic disposition, and pharmacokinetics of a single oral dose of regorafenib in healthy human subjects” (Cancer Chemotherapy and Pharmacology, 2017).
Where “and” joins values, the source holds several entries; their conditions need not be identical. Equal values may be shown once.

How the values were obtained:
[1] = Metabolite profiling in plasma by HPLC–LSC; format: in vivo, human; conditions: for Occurrence in plasma: radiochromatography of plasma; for Percent of total AUC(0–144) of radioactivity in plasma: based on HPLC–LSC, mean
Method: Blood and plasma: Blood samples (18.7 mL per each time point) were collected into nonbeaded lithium-heparinized tubes immediately pre-dose and at the following post-dose times: 0.5, 1, 1.5, 2, 2.5, 3, 4, 6, 9, 12, 16, 20, 24, 36, 48, 72, 96, 120, 144, 192, 240, and 288 h. For each sample, 1 mL of whole blood was stored at 4 °C for subsequent LSC and the remainder was processed for plasma. Individual 150 μL plasma samples for each time point were treated with formic acid (20 μL) and acetonitrile (450 μL). The samples were homogenized using a MS2 Minishaker® (IKA® Labortechnik, Staufen im Breisgau, Germany). The precipitated proteins were removed by centrifugation (5 min, 13,000 rpm, Biofuge). After concentrating the supernatant to about 80 μL, methanol (15 μL) was added. The individual samples were analyzed by HPLC with off-line radioactivity detection for metabolite profiling.
Pharmacokinetic outcome measures were generated by non-compartmental analysis of plasma concentration–time data using WinNonlin v4.1 (Pharsight Corporation) in conjunction with Kincalc v2.50 (Bayer AG). For individual subjects, primary outcome measures were maximum observed concentration (C max) and area under the concentration–time curve from time zero to infinity (AUC). […] The metabolite or regorafenib percentages were calculated by AUC(0–144)metabolite or regorafenib divided by AUC(0–144)radioactivity calculated from data obtained by HPLC–LSC analysis. Secondary outcomes were: time to C max (t max); apparent terminal elimination half-life (t ½); apparent volume of distribution during the terminal phase after extravascular administration (Vz/F); and total body clearance of drug calculated after extravascular administration (e.g., apparent oral clearance) (CL/F). AUC was estimated by the sum of partial areas: partial areas were calculated using the linear (if C i ≤ C i+1) or the logarithmic (if C i > C i+1) trapezoidal rules. The quality of the half-life calculation was assessed based on graphs showing the concentration–time profile. For reliable calculation of the half-life, at least three data points (concentration/time values) were used. The extrapolated portion of the AUC from the last measured data point C(t n) to infinity was calculated using the concentration C last,calc, which was calculated from the log-linear regression line used for half-life calculation rather than C(t n). In addition, appropriate pharmacokinetic parameters were derived from the total radioactivity-versus-time data in blood and plasma.
(§1) Due to the limited amount of radiocarbon associated with many of the samples, analyses were conducted using HPLC with fraction collection followed by off-line LSC. Samples were analyzed on a 150 × 3 mm Prodigy® ODS-3 100A, 3 µm column (Phenomenex, Aschaffenburg, Germany) protected by 8 × 3 mm Nucleosil® 100-3 C18 HD guard columns (Macherey–Nagel, Düren, Germany). Metabolites were separated with a gradient of aqueous potassium dihydrogen phosphate (1 g/L, pH 2.0, mobile phase A) versus acetonitrile (mobile phase B) at a flow rate of 0.5 mL/min (gradient: 0% B at 0 min, linear to 50% B at 10 min, linear to 60% B at 25 min, linear to 80% B at 26 min, plateau at 80% B to 30 min). The radiochemical profile of [^14C]regorafenib-derived radioactivity was determined for all urine samples, plasma extracts, and fecal homogenate extracts. Here, HPLC fractionation into 96-well plates was followed by off-line LSC (Wallac 1450 MicroBeta liquid scintillation analyzer) after adding 150 μL of scintillation cocktail to each well (Ultima-Flo™ AP, PerkinElmer; sampling rate: 10 s/well) using the Wallac 1450 Microbeta™ Plusliquid detector. Reconstructed radiochemical profiles were compiled from the resulting data.

human hepatocytes = experiment: In vitro metabolism of [14C]regorafenib in human hepatocytes; format: in vitro ADME; conditions: [14C]regorafenib 2 µM, 2 h
Method: Primary human hepatocytes were obtained from two male donors. […] Regorafenib was added from a 200 µM stock solution in acetonitrile, resulting in 1% final acetonitrile in the incubation. At 0 and 2 h, aliquots of the incubation mixture were removed and the incubation was terminated with acetonitrile to a final content of about 30% (v/v). Samples were analyzed directly or stored at − 20 °C until analysis. Analysis was performed by HPLC–liquid scintillation counting (HPLC–LSC) and HPLC–high-resolution mass spectrometry (HPLC–HRMS/MS).

[2] = parameters: method as in PMID 22421192, PMID 22568966; conditions: cited from earlier work; for Exposure relative to regorafenib after a single dose: plasma; for Secondary maximum of plasma concentration–time profile / Tertiary maximum of plasma concentration–time profile: steady state
[3] = parameters: method as in PMID 27734608; conditions: cited from earlier work
[4] = parameters: method as in PMID 24896071; conditions: co-administration of ketoconazole with a single 160 mg dose of regorafenib; cited from earlier work
human feces = experiment: Incubation with human feces under anaerobic conditions; format: in vitro ADME; conditions: for Conversion to the parent drug on incubation in feces: 10 μM, 24 h, 37 °C, anaerobic, reduction of M-2, hydrolysis of M-7; for Stability in feces / toward gut flora: anaerobic conditions, ex vivo
Method: Under anaerobic conditions, a suspension of fresh human feces (about 0.5 g) in degassed water (final volume 5 mL) was treated with a solution of [^14C]-labelled metabolite M-2 or metabolite M-7 (1 mg/mL acetonitrile; final concentration: 10 μM). After incubation for 24 h at 37 °C, the incubation mixture was terminated by the addition of acetonitrile (2 mL). After centrifugation (5 min, 3000 rpm), the supernatant (25 μL) was directly subjected to HPLC with the respective off-line radioactivity detection. As negative controls, metabolites M-2 and M-7 were incubated in water for 24 h at 37 °C.

[5] = Mass balance: urinary and fecal excretion of radioactivity and metabolite pattern in excreta; format: in vivo, human; conditions: individual values of the four subjects
Method: Urine: Urine samples were collected at 12-h intervals post-dose on Day 1 and then at 24-h intervals until 288 h post-dose. Urine was stored at 4 °C until it was divided into aliquots for LSC and subsequent metabolite profiling (aliquots were stored at − 20 °C).
Feces: Fecal samples were collected and homogenized in water on a daily basis until 12 days post-dose. Duplicate aliquots of the homogenates were taken for combustion with oxygen (in preparation for LSC), and separate aliquots were used for metabolite profiling.
Liquid samples: Duplicate aliquots of liquid samples were diluted with 1 mL distilled water, if necessary, and mixed with 10 mL Aquasafe 500 Plus scintillation fluid. Levels of radioactivity were measured by LSC (PerkinElmer 2100) with automatic quench correction by an external standard channel ratio method at 13 °C using Ultima Gold™ as the liquid scintillation cocktail. Lower limits of detection (LLOD) were 30 μg-Eq/L for plasma (sample volume 0.5 mL), 50 μg-Eq/L for whole blood (sample volume 0.3 mL), and 0.016 μg-Eq/g for urine (sample weight 1 g).
Fecal samples: Duplicate aliquots of fecal homogenate (about 0.3 g) were weighed into Combustocones® containing Combustopads® for combustion analysis. Samples were combusted using a Packard Tri-Carb 307 Automatic Sample Oxidizer. The resultant ^14CO2 generated was collected by absorption in Carbo-Sorb (8 mL) to which Permafluor E+ (10 mL) was added. Radioactivity was quantified using a liquid scintillation analyzer (PerkinElmer 2100), with automatic quench correction using an external standard method as urine sample analysis. Samples were allowed to stabilize with respect to heat and light, and each sample was analyzed for 5 min. Prior to calculation of individual results, a background count rate was determined and subtracted from each sample’s count rate. LOD was 0.05 μg-Eq/g (sample weight 0.3 g).
as §1

| SMILES | Formation in human hepatocytes (human hepatocytes) | Percent of total AUC(0–144) of radioactivity in plasma [1] [%] | Mean total exposure, AUC(0–144 h) ([1]; plasma, HPLC–LSC) [mg-Eq·h/L] | Stability in feces / toward gut flora (human feces) | Occurrence in plasma [1] | also measured |
| --- | --- | --- | --- | --- | --- | --- |
| O=C(Nc1ccc(Cl)c(C(F)(F)F)c1)Nc1ccc(Oc2cc[n+]([O-])c(C(=O)NCO)c2)cc1F [M-1] | observed | – | – | – | only occasionally found as traces in plasma | – |
| NC(=O)c1cc(Oc2ccc(NC(=O)Nc3ccc(Cl)c(C(F)(F)F)c3)c(F)c2)cc[n+]1[O-] [M-5] | observed | 6.3 | 2.00 | – | – | Terminal half-life (t 1/2) [2]: about 60 h; Exposure relative to regorafenib after a single dose [2]: signficantly lower exposure than regorafenib; Secondary maximum of plasma concentration–time profile [2]: 6 to 8 h; Tertiary maximum of plasma concentration–time profile [2]: ~24 h; Fraction unbound in plasma [3]: 0.053%; Decrease in mean AUC [4]: > 90%; Decrease in mean C max [4]: > 90% |
| CNC(=O)c1cc(Oc2ccc(NC(=O)Nc3ccc(Cl)c(C(F)(F)F)c3)c(F)c2)cc[n+]1[O-] [M-2] | identified | 28.7 | 20.16 | not stable | – | half-life ([1]; male, human, plasma, oral, 120 mg, read-out: Half-life of M-2, range between subjects): 11 to 33 h; Conversion to the parent drug on incubation in feces (human feces): quantitative; Exposure relative to regorafenib after a single dose [2]: signficantly lower exposure than regorafenib; Secondary maximum of plasma concentration–time profile [2]: 6 to 8 h; Tertiary maximum of plasma concentration–time profile [2]: ~24 h; Fraction unbound in plasma [3]: 0.188%; Decrease in mean AUC [4]: > 90%; Decrease in mean C max [4]: > 90% |
| NC(=O)c1cc(Oc2ccc(NC(=O)Nc3ccc(Cl)c(C(F)(F)F)c3)c(F)c2)ccn1 [M-4] | identified | – | – | – | only occasionally found as traces in plasma | – |
| O=C(Nc1ccc(Cl)c(C(F)(F)F)c1)Nc1ccc(Oc2ccnc(C(=O)NCO)c2)cc1F [M-3] | identified | – | – | – | only occasionally found as traces in plasma | – |

Continued, in another order:

| Formation in human hepatocytes (human hepatocytes) | Percent of total AUC(0–144) of radioactivity in plasma [1] [%] | Mean total exposure, AUC(0–144 h) ([1]; plasma, HPLC–LSC) [mg-Eq·h/L] | Stability in feces / toward gut flora (human feces) | SMILES | Occurrence in plasma [1] | also measured |
| --- | --- | --- | --- | --- | --- | --- |
| identified | – | – | – | O=C(Nc1ccc(Cl)c(C(F)(F)F)c1)Nc1ccc(Oc2ccnc(C(=O)O)c2)cc1F [M-6] | – | – |
| observed | – | – | not stable | CNC(=O)c1cc(Oc2ccc(NC(=O)N(c3ccc(Cl)c(C(F)(F)F)c3)C3OC(C(=O)O)C(O)C(O)C3O)c(F)c2)cc[n+]1[O-] (stereo not shown) [M-8] | only occasionally found as traces in plasma | Course of degradation on incubation with human feces (human feces): reduction of the N-oxide leading to M-7 proceeded much faster than cleavage of the N-glucuronide yielding M-2 |
| identified | 3.1 | 2.43 | not stable | CNC(=O)c1cc(Oc2ccc(NC(=O)N(c3ccc(Cl)c(C(F)(F)F)c3)C3OC(C(=O)O)C(O)C(O)C3O)c(F)c2)ccn1 (stereo not shown) [M-7] | – | C max, range between subjects ([1]; plasma, HPLC–LSC): 137–174 μg-Eq/L; Fecal excretion of M-7 in individual subjects [5]: 0.03 % of the dose and 0.3 % of the dose and about 6.0 % of the dose and 13.7 % of the dose and about 14 % of the dose; Conversion to the parent drug on incubation in feces (human feces): < 10% |
